The values that follow come from patent US9980948B2, “Azaindole derivative having AMPK-activating activity” (Shionogi & Co., Ltd., priority 2014, dated 2018).

The term Emax denotes the maximal effect, on the per cent scale that the assay sets.

In the assay the target is T1, Human AMPK α2β2γ1 (Homo sapiens, UniProt O43741+P54646).
T1 construct: The full length cDNAs of human AMPK β2 (NM_005399.3) and human AMPK α2 (NM_006252.3); The full length cDNAs of human AMPK β2 (NM_005399.3); the full length cDNA of human AMPK γ1 (NM_002733.3) had been inserted into pET28b(+); 6xHis (N); made in house; host or cells: Escherichia coli BL21 CodonPlus (DE3)-RTL (AMPK); BL21 Star (DE3) (CaMKKβ)
The experiment in a line: Test Example 2: evaluation of an activator for AMP-activated protein kinase (AMPK), human AMPK α2β2γ1 phosphorylated with CaMKK2, FL-Peptide 7 mobility shift. The class given is biochemical. As to conditions: for EC150 (compound concentration showing 150% relative to the control (100%)): human AMPK α2β2γ1, 0.2 mM ATP final, 25° C., 2 hours; for Emax: read-out: Emax (maximum rate of increase in activity within the measurement range). As for the experimental part:
The full length cDNAs of human AMPK β2 (NM_005399.3) and human AMPK α2 (NM_006252.3) were inserted into the MCS1 and MCS2 of the pETDuet-1 vector to prepare a human AMPK β2 and human AMPK α2 (6× His tag at the 5′ terminus) expressing plasmid. The plasmid was cotransfected with an expression plasmid, in which the full length cDNA of human AMPK γ1 (NM_002733.3) had been inserted into pET28b(+), into BL21 CodonPlus (DE3)-RTL to obtain an expression strain. The expression strain was cultured in TB medium, followed by induction with 0.5 mM IPTG, and cultured at 25° C. for 3 hours and then harvested.
An expression vector, in which the full length cDNA of human CAMKK β (NM_172226.1) had been inserted into pGEX-6P-3, was transfected into BL21 Star (DE3). The expression strain was cultured in TB medium, followed by induction with 0.5 mM IPTG, and cultured at 25° C. for 3 hours and then harvested.
Thus, phosphorylation treatment was carried out as pretreatment.
Human AMPK α2β2γ1 in an amount to give a conversion rate of approximately 10% by reaction for 2 hours, and CaMKK2 in an amount capable of sufficiently imparting activity to AMPK for one hour were mixed in a buffer solution consisting of a 50 mM HEPES-NaOH buffer solution (pH 7.0), 100 mM NaCl, 5 mM magnesium chloride, 0.1% bovine serum albumin, 0.2 mM sodium orthovanadate(V), 1 mM ethylene glycol-bis(2-aminoethyl ether)-N,N,N′,N′-tetraacetic acid (EGTA), 5 mM disodium β-glycerophosphate, 1 mM dithiothreitol and 0.2 mM ATP, and the obtained liquid was left to stand at 25° C. for 1 to 1.5 hours to sufficiently phosphorylate AMPK.
The obtained liquid was left to stand for 10 minutes.
The obtained liquid was allowed to react at 25° C. for 2 hours, and 10 μl of 20 mM EDTA was then added thereto to stop the reaction.
To detect phosphorylated fluorescent substrates, the reaction liquid was applied to a measuring device, LabChip EZ Reader II manufactured by Caliper Life Science, Inc., for detecting fluorescence by using differences in mobility due to differences in charge. The setting conditions for the device were pressure, −1.5 PSI; upstream voltage, −2250 V; downstream voltage, −400 V; post sample buffer sip time, 40 seconds; final delay, 120 seconds; and peak order, Product First.
A conversion rate was calculated from the peak heights of the resulting substrate and product. The conversion rate when not containing a compound was used as a control, and a concentration dependent curve was made by plotting the rate of increase in activity to the control at each concentration of a compound.

[1] abbreviates: human AMPK α2β2γ1, relative to control (100%).

Read-outs that look alike come from different tables or passages of the source.

T1 sequence (P54646 whole entry): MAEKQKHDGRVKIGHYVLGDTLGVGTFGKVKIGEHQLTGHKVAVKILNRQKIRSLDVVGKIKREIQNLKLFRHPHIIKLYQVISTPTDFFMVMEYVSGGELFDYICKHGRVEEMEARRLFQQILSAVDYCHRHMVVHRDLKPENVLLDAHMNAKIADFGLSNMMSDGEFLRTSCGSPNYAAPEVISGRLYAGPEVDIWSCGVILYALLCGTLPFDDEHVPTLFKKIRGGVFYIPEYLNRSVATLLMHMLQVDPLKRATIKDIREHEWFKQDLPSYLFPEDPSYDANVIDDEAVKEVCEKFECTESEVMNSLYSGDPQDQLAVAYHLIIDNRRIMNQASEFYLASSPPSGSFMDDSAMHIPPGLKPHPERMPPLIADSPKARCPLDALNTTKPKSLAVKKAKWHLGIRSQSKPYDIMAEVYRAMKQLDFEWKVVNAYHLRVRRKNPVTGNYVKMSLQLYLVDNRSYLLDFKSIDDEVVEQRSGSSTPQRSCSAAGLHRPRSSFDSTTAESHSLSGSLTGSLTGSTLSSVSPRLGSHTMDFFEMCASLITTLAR
T1 sequence (O43741 whole entry): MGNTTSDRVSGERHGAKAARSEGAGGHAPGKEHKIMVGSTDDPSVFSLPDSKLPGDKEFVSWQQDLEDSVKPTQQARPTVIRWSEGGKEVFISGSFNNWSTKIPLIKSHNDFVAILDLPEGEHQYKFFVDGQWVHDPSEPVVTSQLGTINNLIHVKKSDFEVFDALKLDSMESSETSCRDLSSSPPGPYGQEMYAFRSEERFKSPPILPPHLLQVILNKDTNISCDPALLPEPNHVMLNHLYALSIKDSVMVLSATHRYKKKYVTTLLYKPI
T1 sequence (P54619 whole entry partner): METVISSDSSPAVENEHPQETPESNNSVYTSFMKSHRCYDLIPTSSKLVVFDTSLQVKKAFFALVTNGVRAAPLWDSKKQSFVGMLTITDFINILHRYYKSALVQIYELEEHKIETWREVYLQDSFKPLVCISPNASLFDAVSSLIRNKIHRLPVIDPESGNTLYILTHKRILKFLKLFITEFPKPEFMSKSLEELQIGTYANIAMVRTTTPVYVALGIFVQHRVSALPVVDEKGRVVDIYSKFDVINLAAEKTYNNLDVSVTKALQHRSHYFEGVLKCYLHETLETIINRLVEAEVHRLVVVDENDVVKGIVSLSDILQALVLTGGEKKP

As to `COc1nc(N2CC[C@@H](O)C2)ccc1-c1nc2cc(O[C@@H]3CO[C@H]4[C@@H]3OC[C@H]4O)[nH]c2cc1F` [Compound I-2-78], the “EC150 (compound concentration showing 150% relative to the control (100%))” value is 7.1 nM. Moreover, the Emax under setting [1] is 490%.
In the case of `CS(=O)(=O)N1C2C=C(c3ccc(-c4nc5cc(O[C@@H]6CO[C@H]7[C@@H]6OC[C@H]7O)[nH]c5cc4F)cc3)CC1CC2` (stereo partly shown) [Compound I-3-4], the “EC150 (compound concentration showing 150% relative to the control (100%))” value came out at 30 nM. Further, under setting [1], the “Emax (maximum rate of increase in activity within the measurement range)” value is reported as 568%.
Turning to `O[C@@H]1CO[C@H]2[C@@H]1OC[C@H]2Oc1cc2nc(-c3ccc(OCCCN4CCOCC4)cc3)c(F)cc2[nH]1` [Compound I-3-6], the “EC150 (compound concentration showing 150% relative to the control (100%))” value is 74 nM. The Emax under setting [1] came to 475%.
In the same order, the values of `CC(=O)Nc1nc(-c2ccc(-c3nc4cc(O[C@@H]5CO[C@H]6[C@@H]5OC[C@H]6O)[nH]c4cc3F)cc2)cs1` [Compound I-3-10] are 7.9 nM and 391%.
For `CS(C)(=O)=Nc1ccc(-c2ccc(-c3nc4cc(O[C@@H]5CO[C@H]6[C@@H]5OC[C@H]6O)[nH]c4cc3F)cc2)nc1` [Compound I-3-12], in that order: 4.2 nM and 396%.
For `O[C@@H]1CO[C@H]2[C@@H]1OC[C@H]2Oc1cc2nc(-c3ccc4scnc4c3)c(F)cc2[nH]1` [Compound I-3-14], in that order: 150 nM and 430%.
As to `N#Cc1cc2[nH]c(O[C@@H]3CO[C@H]4[C@@H]3OC[C@H]4O)cc2nc1NC1CCc2cc(F)cc(F)c21` (stereo partly shown) [Compound I-3-17], the “EC150 (compound concentration showing 150% relative to the control (100%))” value is listed as 40 nM. The Emax under setting [1] came to 492%.
With `O[C@@H]1CO[C@H]2[C@@H]1OC[C@H]2Oc1cc2nc(NC3CCc4cc(F)cc(F)c43)c(C(F)(F)F)cc2[nH]1` (stereo partly shown) [Compound I-3-19], the “EC150 (compound concentration showing 150% relative to the control (100%))” value turned out to be 120 nM. Further, the Emax under setting [1] turned out to be 543%.
In the same order, the values of `O[C@@H]1CO[C@H]2[C@@H]1OC[C@H]2Oc1cc2nc(-c3ccc(-c4ccsc4)cc3)c(F)cc2[nH]1` [Compound I-3-23] are 5 nM and 510%.
With `O[C@@H]1CO[C@H]2[C@@H]1OC[C@H]2Oc1cc2nc(-c3ccsc3)c(F)cc2[nH]1` [Compound I-3-24], the “EC150 (compound concentration showing 150% relative to the control (100%))” value stood at 340 nM. Besides, the Emax under setting [1] turned out to be 315%.
With `Cn1cc(-c2ccc(-c3nc4cc(O[C@@H]5CO[C@H]6[C@@H]5OC[C@H]6O)[nH]c4cc3F)cc2)cn1` [Compound I-3-25], the “EC150 (compound concentration showing 150% relative to the control (100%))” value was found to be 6.6 nM. Further, under setting [1], the Emax was 493%.
For `COc1nc(N2CCCC2)ccc1-c1nc2cc(O[C@@H]3CO[C@H]4[C@@H]3OC[C@H]4O)[nH]c2cc1F` [Compound I-3-27], in that order: 12 nM and 633%.
With `COc1cc(F)c(-c2nc3cc(O[C@@H]4CO[C@H]5[C@@H]4OC[C@H]5O)[nH]c3cc2F)c(F)c1` [Compound I-3-28], the “EC150 (compound concentration showing 150% relative to the control (100%))” value is recorded as 87 nM. The Emax under setting [1] amounted to 430%.
For `O=C(CO)NCCCOc1ccc(-c2nc3cc(O[C@@H]4CO[C@H]5[C@@H]4OC[C@H]5O)[nH]c3cc2F)cc1` [Compound I-3-31], in that order: 55 nM and 505%.
For `O[C@@H]1CO[C@H]2[C@@H]1OC[C@H]2Oc1cc2nc(-c3ccc(N4CCOCC4)cc3F)c(C(F)(F)F)cc2[nH]1` [Compound I-3-39], in that order: 200 nM and 491%.
Turning to `CS(C)(=O)=Nc1ccc(-c2ccc(-c3nc4cc(O[C@@H]5CO[C@H]6[C@@H]5OC[C@H]6O)[nH]c4cc3F)cc2)cc1` [Compound I-3-40], the “EC150 (compound concentration showing 150% relative to the control (100%))” value was found to be 0.91 nM and the Emax came out at 491%.
As for `COc1cc(C2=CCOCC2)ccc1-c1nc2cc(O[C@@H]3CO[C@H]4[C@@H]3OC[C@H]4O)[nH]c2cc1F` [Compound I-3-41], the “EC150 (compound concentration showing 150% relative to the control (100%))” value is 31 nM. The Emax under setting [1] is 500%.
As to `CS(=N)(=O)c1ccc(-c2ccc(-c3nc4cc(O[C@@H]5CO[C@H]6[C@@H]5OC[C@H]6O)[nH]c4cc3F)cc2)cc1` (stereo partly shown) [Compound I-3-43], the “EC150 (compound concentration showing 150% relative to the control (100%))” value came to 0.84 nM. Besides, under setting [1], the Emax worked out at 538%.
For `CN=S(C)(=O)c1ccc(-c2ccc(-c3nc4cc(O[C@@H]5CO[C@H]6[C@@H]5OC[C@H]6O)[nH]c4cc3F)cc2)cc1` (stereo partly shown) [Compound I-4-1], in that order: 1.4 nM and 496%.
For `CS(C)(=O)=Nc1ccc(-c2ccc(-c3nc4cc(O[C@@H]5CO[C@H]6[C@@H]5OC[C@H]6O)[nH]c4cc3F)c(F)c2)cc1` [Compound I-4-5], in that order: 3.2 nM and 510%.
For `CS(C)(=O)=NC1CC=C(c2ccc(-c3nc4cc(O[C@@H]5CO[C@H]6[C@@H]5OC[C@H]6O)[nH]c4cc3F)cc2)CC1` (stereo partly shown) [Compound I-4-17], in that order: 2.9 nM and 511%.
Consider `CN=S(C)(=O)c1ccc(-c2ccc(-c3nc4cc(O[C@@H]5CO[C@H]6[C@@H]5OC[C@H]6O)[nH]c4cc3C(F)(F)F)cc2)cc1` (stereo partly shown) [Compound I-4-18], for which the “EC150 (compound concentration showing 150% relative to the control (100%))” value was found to be 9.5 nM. The Emax under setting [1] was determined as 598%.
In the same order, the values of `CS(=O)(=NCCO)c1ccc(-c2ccc(-c3nc4cc(O[C@@H]5CO[C@H]6[C@@H]5OC[C@H]6O)[nH]c4cc3F)cc2)cc1` (stereo partly shown) [Compound I-4-31] are 3.1 nM and 674%.
In the case of `CNS(=O)(=O)Nc1ccc(-c2ccc(-c3nc4cc(O[C@@H]5CO[C@H]6[C@@H]5OC[C@H]6O)[nH]c4cc3F)cc2)cc1` [Compound I-4-34], the “EC150 (compound concentration showing 150% relative to the control (100%))” value came out at 4 nM. Further, under setting [1], the Emax is 431%.
Consider `COC(=O)Nc1ccc(-c2ccc(-c3nc4cc(O[C@@H]5CO[C@H]6[C@@H]5OC[C@H]6O)[nH]c4cc3F)cc2)cc1` [Compound I-4-35], for which the “EC150 (compound concentration showing 150% relative to the control (100%))” value is 10 nM. The Emax under setting [1] came out at 447%.
For `CN=S(C)(=O)c1ccc(-c2ccc(-c3nc4cc(O[C@@H]5CO[C@H]6[C@@H]5OC[C@H]6O)[nH]c4cc3F)cc2)cc1` (stereo partly shown) [Compound I-4-36], in that order: 2.3 nM and 510%.
As for `CN=S(C)(=O)c1ccc(-c2ccc(-c3nc4cc(O[C@@H]5CO[C@H]6[C@@H]5OC[C@H]6O)[nH]c4cc3F)cc2)cc1` (stereo partly shown) [Compound I-4-37], the “EC150 (compound concentration showing 150% relative to the control (100%))” value stood at 1.5 nM. Also, the “Emax (maximum rate of increase in activity within the measurement range)” value under setting [1] is 502%.
On to `CNS(=O)(=O)c1ccc(-c2ccc(-c3nc4cc(O[C@@H]5CO[C@H]6[C@@H]5OC[C@H]6O)[nH]c4cc3F)cc2)cc1` [Compound I-4-39], for which the “EC150 (compound concentration showing 150% relative to the control (100%))” value worked out at 1.9 nM. Further, the Emax under setting [1] came out at 479%.
In the same order, the values of `CS(=O)(=O)c1ccc(-c2ccc(-c3nc4cc(O[C@@H]5CO[C@H]6[C@@H]5OC[C@H]6O)[nH]c4cc3F)cc2)nc1` [Compound I-4-41] are 1.4 nM and 441%.
